Here are results for five compounds from publication PMC6272861, “In Vitro Inhibition of Human UDP-Glucuronosyl-Transferase (UGT) Isoforms by Astaxanthin, β-Cryptoxanthin, Canthaxanthin, Lutein, and Zeaxanthin: Prediction of in Vivo Dietary Supplement-Drug Interactions” (Molecules, 2016).

One may read the IC50 as the midpoint of a concentration-inhibition curve. In general, Ki refers to a measure of affinity in units of concentration, obtained from inhibition or displacement.

Like-named read-outs stand apart in the source and are kept apart here.

The target of one data set is T1, UGT1A9 (Homo sapiens, UniProt O60656).
T1 sequence (O60656 26-530): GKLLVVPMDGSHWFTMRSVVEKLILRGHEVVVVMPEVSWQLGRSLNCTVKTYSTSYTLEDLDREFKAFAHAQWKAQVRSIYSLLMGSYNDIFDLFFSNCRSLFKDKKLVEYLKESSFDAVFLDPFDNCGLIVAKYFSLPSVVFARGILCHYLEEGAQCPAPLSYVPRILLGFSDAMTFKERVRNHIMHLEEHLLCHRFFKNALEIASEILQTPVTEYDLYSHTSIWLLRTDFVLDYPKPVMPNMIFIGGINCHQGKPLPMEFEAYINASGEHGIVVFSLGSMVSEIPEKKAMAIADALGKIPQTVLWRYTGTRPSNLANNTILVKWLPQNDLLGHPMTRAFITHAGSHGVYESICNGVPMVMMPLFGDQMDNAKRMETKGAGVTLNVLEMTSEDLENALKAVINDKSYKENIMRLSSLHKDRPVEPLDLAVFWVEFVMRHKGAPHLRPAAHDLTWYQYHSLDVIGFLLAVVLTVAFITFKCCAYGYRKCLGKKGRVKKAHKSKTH
Description: Inhibition of UGT1A9 (propofol-O-glucuronidation) in human liver microsomes. The settings on record: for Residual UGT1A9 enzyme activity: highest tested concentration 50 μM. Background: Liver microsomes are vesicles of endoplasmic reticulum, rich in cytochrome P450 enzymes.

For data set [1], the target named is T2, UGT1A1 (Homo sapiens, UniProt P22309).
T2 sequence (P22309 26-533): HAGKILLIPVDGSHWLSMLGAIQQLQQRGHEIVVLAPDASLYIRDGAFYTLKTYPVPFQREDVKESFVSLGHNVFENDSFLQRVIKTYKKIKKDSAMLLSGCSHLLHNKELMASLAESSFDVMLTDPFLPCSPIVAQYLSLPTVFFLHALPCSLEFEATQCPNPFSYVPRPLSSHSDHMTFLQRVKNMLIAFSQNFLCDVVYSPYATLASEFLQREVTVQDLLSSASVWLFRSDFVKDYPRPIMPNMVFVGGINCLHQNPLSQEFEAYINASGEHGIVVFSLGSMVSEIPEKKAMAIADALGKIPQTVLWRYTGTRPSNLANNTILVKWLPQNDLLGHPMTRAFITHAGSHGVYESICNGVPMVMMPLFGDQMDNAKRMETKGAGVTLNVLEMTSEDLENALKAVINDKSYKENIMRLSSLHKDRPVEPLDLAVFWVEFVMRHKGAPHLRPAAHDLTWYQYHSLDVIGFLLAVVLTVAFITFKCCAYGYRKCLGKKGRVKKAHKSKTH
The experiment in a line: Inhibition of UGT1A1 (β-estradiol-3-glucuronidation) in human liver microsomes. The settings on record: for Residual UGT1A1 enzyme activity: highest tested concentration 50 μM.
Description: (§1) The formation activities of β-estradiol-3-glucuronide, chenodeoxycholic acid 24-acyl-β-D-glucuronide, trifluoperazine-N-glucuronide, imipramine-N-β-D-glucuronide, serotonin-O-glucuronide, propofol-O-glucuronide, and zidovudine-5′-glucuronide were determined to probe the activities of UGT1A1, UGT1A3, UGT1A4, UGT1A6, UGT1A9 and UGT2B7, respectively, in human liver microsomes.
(§2) In brief, the 90-µL incubation mixture, including pooled human liver microsomes (final concentration 0.25 mg/mL), 100 mM Tris buffer, 25 µg/mL alamethicin, 5 mM MgCl2, the UGT-selective substrates, and five xanthophylls (0–50 μM), were pre-incubated for 30 min on ice to allow formation of alamethicin pores. Reac2345tions were initiated by the addition of 10 μL of UDPGA (5 mM) to a final reaction volume of 0.1 mL and incubated at 37 °C for 60 min (except 30 min for UGT1A9) in a shaking water bath. After incubation, each reaction was stopped by adding 50 μL of ice-cold acetonitrile containing chlorpropamide (300 ng/mL) or theophylline (30 μg/mL or 300 μg/mL) as an internal standard. The mixtures were then centrifuged (13,000 g for 15 min at 4 °C) and 5-µL aliquots of the supernatants were injected into an LC-MS/MS system. […] All incubations were performed in triplicate, and mean values were used for analysis.
(§3) Chromatographic separations were performed on an Agilent Poroshell 120 EC-C18 column (50 mm × 4.6-mm i.d.; 2.7-μm particle size; Agilent Technologies) to quantify β-estradiol-3-glucuronide (UGT1A1), chenodeoxycholic acid 24-acyl-β-D-glucuronide (UGT1A3), trifluoperazine-N-glucuronide (UGT1A4), propofol-O-glucuronide (UGT1A9), zidovudine-5′-glucuronide (UGT2B7), and 4-methylumbelliferyl glucuronide (UGT2B15); an Agilent Poroshell 120 EC-C18 column (100 × 4.6-mm i.d.; 2.7-mm particle size) was used for quantification of serotonin-O-glucuronide (UGT1A6). The isocratic mobile phase consisted of distilled water (A) and acetonitrile containing 0.1% formic acid (B) at a ratio (v/v) of 10:90 for chenodeoxycholic acid 24-acyl-β-D-glucuronide, 30:70 for trifluoperazine-N-glucuronide and zidovudine-5′-glucuronide, 50:50 for propofol-O-glucuronide and 4-methylumbelliferyl glucuronide, 65:35 for β-estradiol-3-glucuronide, and 90:10 for serotonin-O-glucuronide, at a flow rate of 0.5 mL/min. The total run time was 4.0 min per sample for each metabolite, with the exception of serotonin-O-glucuronide (6.0 min). Peak areas for all of the analytes were automatically integrated using Analyst software (version 1.5.2, Applied Biosystems, Foster City, CA, USA).
(§4) The IC50 values were calculated via nonlinear least-squares regression analysis from plots of the logarithms of inhibitor concentration vs. the residual percentages of activities after inhibition, using WinNonlin (ver. 4.0; Pharsight, Mountain View, CA, USA).

A further data set has as its target T3, UGT1A4 (Homo sapiens, UniProt P22310).
T3 construct: pooled human liver microsomes (final concentration 0.25 mg/mL); tissue Corning Life Sciences; host or cells: pooled human liver microsomes, 150 donors
T3 sequence (P22310 29-534): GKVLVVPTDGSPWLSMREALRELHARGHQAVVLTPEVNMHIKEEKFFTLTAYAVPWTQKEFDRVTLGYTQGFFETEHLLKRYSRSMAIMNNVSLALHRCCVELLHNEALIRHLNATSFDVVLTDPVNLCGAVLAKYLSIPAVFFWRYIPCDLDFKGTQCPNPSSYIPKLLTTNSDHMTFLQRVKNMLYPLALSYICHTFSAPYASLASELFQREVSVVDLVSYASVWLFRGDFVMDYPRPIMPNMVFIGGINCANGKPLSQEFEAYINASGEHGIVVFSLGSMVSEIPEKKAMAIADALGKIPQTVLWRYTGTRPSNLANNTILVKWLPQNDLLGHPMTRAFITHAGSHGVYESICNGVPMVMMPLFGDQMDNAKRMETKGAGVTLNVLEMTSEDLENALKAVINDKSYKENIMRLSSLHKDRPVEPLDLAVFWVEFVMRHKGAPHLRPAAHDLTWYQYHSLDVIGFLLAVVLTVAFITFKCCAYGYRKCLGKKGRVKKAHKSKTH
The experiment in a line: Inhibition of UGT1A4 (trifluoperazine-N-glucuronidation) in human liver microsomes. It is filed as in vitro ADME. Conditions: for IC50: 4 μM trifluoperazine, mean ± SD of triplicate, read-out: IC50 towards UGT1A4; for Residual UGT1A4 enzyme activity: highest tested concentration 50 μM.

The target of data set [2] is T2, UGT1A1. Description: Ki determination on UGT1A1 activity (β-estradiol-3-glucuronidation) in human liver microsomes. The procedure:
Based on the lowest IC50 value, the inhibitor constant (Ki) values of the βC for UGT1A1 were determined. […] All incubations were performed in triplicate, and the mean values were used for the analysis. Other procedures were similar to those of the reversible inhibition studies.
For visual inspection, data were presented as Dixon plots.

Details of data set [3]: method as in PMID 13129448. The settings on record: healthy subjects, single-dose carotenoid supplement containing 1.3 mg of esterified βC, oral; read-out: mean Cmax (maximum plasma concentration); cited from earlier work.
The target of data set [4] is T2, UGT1A1. Description: Prediction of in vivo drug interaction via UGT1A1 inhibition (AUCi/AUC = 1 + [I]in vivo/Ki). Details: pooled human liver microsomes (final concentration 0.25 mg/mL); tissue Corning Life Sciences; host or cells: pooled human liver microsomes, 150 donors. An excerpt:
As far as we know, for reversible inhibitors, the magnitude of the drug-drug interaction is affected by both the in vitro inhibition constant (Ki) and the in vivo inhibitor concentration. […] In this study, the maximum plasma concentration (Cmax) of βC was used as the [I]in vivo value, and the fraction metabolized by the UGT1A1 of the co-administrated drug was supposed to be 1.

Setting [5] is: read-out: IC50 towards UGT1A9, human liver microsomes, 100 μM propofol, mean ± SD of triplicate.
[6] abbreviates: read-out: IC50 towards UGT1A1, human liver microsomes, 10 μM β-estradiol, mean ± SD of triplicate.

Description for UGT1A4: as §1, §2, §3, §4
Description for UGT1A9: as §1, §2, §3, §4

As to `CC1=C(/C=C/C(C)=C/C=C/C(C)=C/C=C/C=C(C)/C=C/C=C(C)/C=C/C2=C(C)C(=O)[C@@H](O)CC2(C)C)C(C)(C)C[C@H](O)C1=O` [AS, astaxanthin], the IC50 on UGT1A9, against UGT1A1 [1] and at UGT1A4 was over 50 µM throughout. The “Residual UGT1A9 enzyme activity” value at UGT1A9 (human liver microsomes) is “greater than 80%”. Besides, the “Residual UGT1A1 enzyme activity” value on UGT1A1 [1] (human liver microsomes) is “greater than 80%”. For the same compound, on UGT1A4, the “Residual UGT1A4 enzyme activity” value is on record as “greater than 80%”.

Take `CC1=C(/C=C/C(C)=C/C=C/C(C)=C/C=C/C=C(C)/C=C/C=C(C)/C=C/C2=C(C)C(=O)CCC2(C)C)C(C)(C)CCC1=O` [CA, canthaxanthin]: the IC50 on UGT1A9 (setting [5]) was over 50 µM; at UGT1A1 [1] (setting [6]), 38.5 ± 4.65 µM; at UGT1A4, over 50 µM.

For `CC1=C[C@H](O)CC(C)(C)[C@H]1/C=C/C(C)=C/C=C/C(C)=C/C=C/C=C(C)/C=C/C=C(C)/C=C/C1=C(C)C[C@@H](O)CC1(C)C` [LU, lutein], the results for the IC50 on UGT1A9, at UGT1A1 [1] and at UGT1A4 were over 50 µM, 45.5 ± 4.01 µM and 28.7 ± 3.79 µM, respectively.

As for `CC1=C(/C=C/C(C)=C/C=C/C(C)=C/C=C/C=C(C)/C=C/C=C(C)/C=C/C2=C(C)C[C@@H](O)CC2(C)C)C(C)(C)C[C@H](O)C1` [ZE, zeaxanthin], the IC50 against UGT1A9, against UGT1A1 [1] and on UGT1A4 was over 50 µM each time. Also, at UGT1A9 (human liver microsomes), the “Residual UGT1A9 enzyme activity” value is on record as “greater than 80%”. Moreover, the “Residual UGT1A1 enzyme activity” value at UGT1A1 [1] (human liver microsomes) was 61.2%. Further, the “Residual UGT1A4 enzyme activity” value on UGT1A4 is “greater than 80%”.

Consider `CC1=C(/C=C/C(C)=C/C=C/C(C)=C/C=C/C=C(C)/C=C/C=C(C)/C=C/C2=C(C)C[C@@H](O)CC2(C)C)C(C)(C)CCC1` [βC, β-cryptoxanthin], for which the IC50 at UGT1A9 (setting [5]) is over 50 µM; on UGT1A1 [1] (setting [6]), 18.8 ± 2.07 µM; on UGT1A4, 34.9 ± 5.98 µM. In addition, the “Mode of inhibition of UGT1A1” value at UGT1A1 [2] (Dixon plots / nonlinear regression) is “competitive inhibition”. For the same compound, on UGT1A1 [2] (read-out: Ki against UGT1A1-catalyzed β-estradiol-3-glucuronidation, β-estradiol 5, 10 and 20 μM, nonlinear regression), the Ki is 12.2 ± 0.985 µM. Further, the Cmax in data set [3] is about 150 nM. For the same compound, the “AUCi/AUC ratio for UGT1A1” value on UGT1A1 [4] (calculated from Cmax 0.15 μM and Ki, fraction metabolized by UGT1A1 supposed to be 1) is 1.012. The “Predicted increase of AUC of co-administered drug” value on UGT1A1 [4] (drugs that undergo 100% UGT1A1-mediated elimination) was 1.2%.
